Like-named read-outs stand apart in the source and are kept apart here.
Tests used:
[1] = system: cGAS/STING pathway in THP1 cells; assay: THP1 cell-based cGAS/STING pathway activity assay (IRF-3-linked luciferase reporter); conditions: Homo sapiens, THP-1
How it was run: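 THP1 cells carrying an IRF-3-driven luciferase reporter were read across a range of compound concentrations, and IC50 values were derived from these concentration responses; the assay upper limit was 100 μM.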

[2] = system: Trex1-KO BMM; assay: Viability of Trex1-KO BMM (Cell Titer Glo 2.0); type: cell-based, mice; conditions: Trex1-KO BMM at the cytokine IC50 concentrations
Description: The inhibition of secreted cytokine was measured in bone marrow-derived macrophages (BMMs) from diseased mice to evaluate the potency of compounds of the invention as described herein. […] To derive bone marrow macrophages, marrow extracted from the femurs and tibias were harvested from Trex1-KO mice was cultured in growth media supplemented with macrophage colony-stimulating factor (M-CSF). Differentiated BMM were harvested and frozen for subsequent experimentation. For treatment with compound C1089 (see Example 13), a frozen stock of Trex1-KO BMM was thawed and 1×10^5 cells were plated in 96 well format. BMMs were treated with a dilution series of C1089 and incubated overnight at 37° C. 5% CO2, at which point cellular supernatants were harvested and stored at −80° C. for subsequent analysis. The media used for this dilution series was without FBS. Remaining cells were evaluated for viability using Cell Titer Glo 2.0 kit according to the manufacturer instructions. BMM supernatants were evaluated for the secreted cytokine […] (RANTES/CCL5) or for secreted cytokine monocyte chemoattractant protein 1 (MCP-1/CCL2) using cytometric bead array mouse Flex Set kits (BD Biosciences). Cytokine concentration was calculated from a standard curve and normalized to vehicle (DMSO) treated cells.

[3] = molecular target: Human cGAS amino acids 155-522 (Homo sapiens (Human), UniProt Q8N884); assay: cGAS biochemical activity assay (ATP remaining, Kinase-Glo Max luminescence); conditions: human cGAS 155-522, ATP remaining (Kinase-Glo Max); read-out: cGAS IC50
Human cGAS amino acids 155-522, sequence (Q8N884 157-522): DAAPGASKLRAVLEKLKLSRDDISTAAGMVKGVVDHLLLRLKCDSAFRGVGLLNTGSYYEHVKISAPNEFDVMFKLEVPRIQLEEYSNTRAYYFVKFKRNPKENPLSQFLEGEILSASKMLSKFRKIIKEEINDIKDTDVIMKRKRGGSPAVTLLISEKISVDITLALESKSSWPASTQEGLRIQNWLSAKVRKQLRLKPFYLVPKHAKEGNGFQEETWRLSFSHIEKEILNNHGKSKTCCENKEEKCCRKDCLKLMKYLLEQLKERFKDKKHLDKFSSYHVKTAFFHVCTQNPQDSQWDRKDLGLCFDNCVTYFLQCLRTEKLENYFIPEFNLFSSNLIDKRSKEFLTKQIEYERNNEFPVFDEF

[4] = system: RANTES/CCL5 secretion by Trex1-KO BMM; assay: Inhibition of RANTES/CCL5 secretion by Trex1-KO bone marrow-derived macrophages; type: cell-based, mice; parameters: key to BMM IC50 R (RANTES): A: an IC50 value less than 5 μM; B: an IC50 value between 5 and 20 μM; where an IC50 value could not be calculated from the data; conditions: for IC50: Mus musculus, Macrophage
How it was run: (§1)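 Bone marrow macrophages from Trex1-KO mice, differentiated with M-CSF, 1×10^5 cells/well, treated overnight at 37 °C with a compound dilution series in FBS-free medium. Secreted cytokine measured by cytometric bead array from a standard curve, normalized to DMSO; viability by CellTiter-Glo.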

[5] = system: MCP-1/CCL2 secretion by Trex1-KO BMM; assay: Inhibition of MCP-1/CCL2 secretion by Trex1-KO bone marrow-derived macrophages; type: cell-based, mice; parameters: key to BMM IC50 M (MCP-1): A: an IC50 value less than 5 μM; B: an IC50 value between 5 and 20 μM; where an IC50 value could not be calculated from the data; conditions: for IC50: Mus musculus, Macrophage
How it was run: as §1

[6] = Solubility of free base (footnote to Table 15); type: physicochemical; conditions: tested as the HCl salt
[7] = MCP-1 secretion, read-out: BMM IC50 M (MCP-1)

IC50 [1] | IC50 [3] | solubility of the free base [6] | BMM IC50 R (RANTES) ([4]; RANTES secretion) | BMM IC50 M (MCP-1) ([5]; MCP-1 secretion) | IC50 [5, 7] | IC50 ([4]; RANTES secretion, read-out: BMM IC50 R (RANTES)) | Structure (SMILES) | BMM viability [2] | IC50 ([4]; overnight, media without FBS, normalized to DMSO, read-out: RANTES/CCL5 IC50) | IC50 ([5]; overnight, media without FBS, normalized to DMSO, read-out: MCP-1/CCL2 IC50)
< 20 µM | < 20 µM |  |  |  |  |  | COc1cccc2oc(-c3c(C#N)[nH]c4c(-c5ccccc5)c(C(F)(F)F)nn4c3=O)nc12 [Compound C1089, 6-(4-methoxybenzo[d]oxazol-2-yl)-7-oxo-3-phenyl-2-(trifluoromethyl)-4,7-dihydropyrazolo[1,5-a]pyrimidine-5-carbonitrile] | 100% | 1.25 µM | 6.97 µM
 | > 250 µM | insoluble |  |  |  |  | COc1cc(CN)cc2oc(-c3c(C)[nH]c4c(-c5ccccc5)c(C(F)(F)F)nn4c3=O)nc12 [Compound C1128, 6-(6-(aminomethyl)-4-methoxybenzo[d]oxazol-2-yl)-5-methyl-3-phenyl-2-(trifluoromethyl)pyrazolo[1,5-a]pyrimidin-7(4H)-one] |  |  | 
< 20 µM | < 20 µM |  | C | C |  |  | COc1cccc2oc(-c3c(C)[nH]c4c(-c5ccccc5F)c(C(F)(F)F)nn4c3=O)nc12 [Compound C1091, 3-(2-fluorophenyl)-6-(4-methoxybenzo[d]oxazol-2-yl)-5-methyl-2-(trifluoromethyl)pyrazolo[1,5-a]pyrimidin-7(4H)-one] |  |  | 
< 20 µM | < 20 µM |  | C |  | 5 to 20 µM |  | COc1cccc2oc(-c3c(CSC)[nH]c4c(-c5ccccc5)c(C(F)(F)F)nn4c3=O)nc12 [Compound C1136, 6-(4-methoxybenzo[d]oxazol-2-yl)-5-((methylthio)methyl)-3-phenyl-2-(trifluoromethyl)pyrazolo[1,5-a]pyrimidin-7(4H)-one] |  |  | 
20 to 100 µM | < 20 µM |  | C | C |  |  | COc1cccc2oc(-c3c(CCC(=O)O)[nH]c4c(-c5ccccc5)c(C(F)(F)F)nn4c3=O)nc12 [Compound C1173, 3-(6-(4-methoxybenzo[d]oxazol-2-yl)-7-oxo-3-phenyl-2-(trifluoromethyl)-4,7-dihydropyrazolo[1,5-a]pyrimidin-5-yl)propanoic acid] |  |  | 
< 20 µM | < 20 µM |  | C | C |  |  | COc1cccc2oc(-c3c(C)[nH]c4c(-c5cc(F)cc(F)c5)c(C(F)(F)F)nn4c3=O)nc12 [Compound C1119, 3-(3,5-difluorophenyl)-6-(4-methoxybenzo[d]oxazol-2-yl)-5-methyl-2-(trifluoromethyl)pyrazolo[1,5-a]pyrimidin-7(4H)-one] |  |  | 
< 20 µM | < 20 µM |  | C | C |  |  | Cc1[nH]c2c(-c3ccccc3)c(C(F)(F)F)nn2c(=O)c1C(=O)Nc1cccc(OC2CCCC2)c1 [Compound A1082, N-(3-(cyclopentyloxy)phenyl)-5-methyl-7-oxo-3-phenyl-2-(trifluoromethyl)-4,7-dihydropyrazolo[1,5-a]pyrimidine-6-carboxamide] |  |  | 
< 20 µM | < 20 µM |  |  |  | 5 to 20 µM | 5 to 20 µM | COCc1[nH]c2c(-c3ccccc3)c(C#N)nn2c(=O)c1-c1nc2c(OC)cccc2o1 [Compound C1139, 6-(4-methoxybenzo[d]oxazol-2-yl)-5-(methoxymethyl)-7-oxo-3-phenyl-4,7-dihydropyrazolo[1,5-a]pyrimidine-2-carbonitrile] |  |  | 
20 to 100 µM | < 20 µM |  | C | C |  |  | Cc1[nH]c2c(-c3ccccc3)c(C(F)(F)F)nn2c(=O)c1-c1nc2c(O)cccc2o1 [Compound C1053, 6-(4-hydroxybenzo[d]oxazol-2-yl)-5-methyl-3-phenyl-2-(trifluoromethyl)pyrazolo[1,5-a]pyrimidin-7(4H)-one] |  |  | 

Reference: patent publication US10738056B2 (Aduro BioTech, Inc., priority 2017, dated 2020)
